# According to patent publication US7737250B2, “Peptides for treating axonal damage, inhibition of neurotransmitter release and pain transmission, and blocking calcium influx in neurons” (Mount Sinai School of Medicine of New York University, priority 2003, dated 2010):
# “Also recorded” adds a separate entry of the source.
# What was measured:
# [1] = system: secretion of Substance P from DRG neurons; experiment: Substance P secretion, single-cell immunoblot assay; format: cell-based, chick; details: baclofen in addition to AP-YF peptide
# Experimental: Secretion Assay: Secretion of substance P was analyzed using the single-cell immunoblot method adapted from Huang and Neher (Huang, L. Y., Neher, E. (1996) Neuron. 17, 135-45.). Briefly, polyvinylidene difluoride transfer membranes (Immobilon P brand from Millipore) were cut to […] and placed in a 6-well plate. Membranes were pre-wetted with methanol for 20 s, rinsed with distilled water and allowed to equilibrate in test solution for >1 hr. In parallel, DRG cells plated were incubated with media containing AP-YF or AP-Scr (1.4 μg/ml) for 1 hour. This media was removed, and replaced with 70 μl of test solution. The membranes were then placed on top of the cells, and allowed to incubate at 37° C. in a humidified CO2 incubator for 30 min. The membranes were then carefully removed from the cells and allowed to dry completely and fixed with powdered paraformaldehyde at 80° C. for 1 hr. Fixed membranes were rinsed in PBS (1 mM KH2PO4, 10 mM Na2HPO4, 137 mM NaCl, 2.7 mM KCl) containing 1% Triton X-100 (PBS-T) to remove excess paraformaldehyde, and blocked with PBS-T containing 3% fetal bovine serum (FBS) for 30 min at room temperature. The membranes were incubated with anti-substance P antibody (Santa Cruz) at 1:200 dilution in PBS-T with 1% FBS overnight in 37° C. incubator. The next day the membranes were developed with a peroxidase/diamninobenzidine (DAB) reaction using the ABC staining kit from Santa Cruz Biotechnology. Images were taken using a CCD camera, and analyzed using Photoshop and NIH image software. Data were plotted by assigning an upper and lower limit of gray values and plotting % of cells at a range within those limits. By plotting graphs as % of cells in a dynamic range, multiple experimental runs were pooled.
# [2] = system: cell-surface myc-L1-CAM on ND-7 cells; experiment: Cytoskeleton attachment assay: resistance of 9E10 bead-myc-L1-CAM complexes to lateral displacement by laser trap; format: cell-based, rat; details: 2 μM cytochalasin D; ND-7 cells expressing myc-L1-CAM
# Experimental: Cell culture and transfection: ND-7 cells (rat neuroblastoma/DRG hybrid cells) were cultured as described in Example 2. 24 hours prior to transfection, cultured cells were plated on coverslips coated with poly-D-lysine and laminin sealed to the bottom of 35 mm culture dishes (Mattek Corp.). Plated cells were transfected with the pL1-CAM or pMyc-L1-CAM expression constructs using Lipofectamine plus (Invitrogen) according to manufacturer's instructions. Transfected cells were cultured for 24-36 hours, and then used for live microscopy. For laser trap and video microscopy, the medium was replaced with phenol red-free serum-free L15 medium (air buffered) with 20 mM HEPES, 0.1% BSA, 0.5% ovalbumin. Cells transfected with the bicistronic expression constructs express a single mRNA encoding both the myc-L1-CAM proteins and EGFP, such that transfected cells were identified by EGFP fluorescence. […]
# Video microscopy, laser tweezers, and data analysis: The 9E10-coated latex beads were then placed and held with an optical gradient laser trap on the surface of transfected cells at a distance of between 0.5 and 1 μm from the leading edge for 2 seconds. […] This wavelength was previously determined to generate the fewest heating artifacts in live cells (Svoboda and Block. Biomol Struct 1994;23:-247-285 and Choquet et al. Cell 1997;88:39-48). […]
# [3] = system: cell-surface myc-L1-CAM on ND-7 cells; experiment: L1-CAM diffusion behavior assay: movement of 9E10-coated beads bound to myc-L1-CAM (video microscopy, laser tweezers); format: cell-based, rat; details: ND-7 cells expressing wild-type myc-L1-CAM; cytochalasin D 2 μM, nocadazole 1 μM, NGF 100 ng/mL 1 hour
# From the text: Video microscopy, laser tweezers, and data analysis: The 9E10-coated latex beads were then placed and held with an optical gradient laser trap on the surface of transfected cells at a distance of between 0.5 and 1 μm from the leading edge for 2 seconds. The laser trap consisted of a Titanium Sapphire (Coherent; model 890) solid state laser pumped by a 5 W frequency-doubled Neodymnium Vanadate laser (Verdi; Coherent) and tuned to 800 nm. This wavelength was previously determined to generate the fewest heating artifacts in live cells (Svoboda and Block. Biomol Struct 1994;23:-247-285 and Choquet et al. Cell 1997;88:39-48). Laser power at the output of the Titanium Sapphire laser was 40 mW, and prepared beads were placed and held on the cell surface for less than 3 sec to further reduce the possibility of heating artifacts. Laser light was introduced through the television port of the Axiovert microscope.
# Video images of bead movement were collected using a newvicon camera (Dage MTI; VE-1000N) and background subtraction and contrast enhancement were carried using a Hamamatsu Argus 20 image processor. Raw data were recorded to sVHS video tape for subsequent analysis. Video recordings were subsequently digitized onto an Intel processor-based computer running the Isee imaging software (Isee Imaging) running under Red Hat Linux 7.1. Quantification of bead movement was carried out in Isee. Diffusional analysis was carried out using a custom spreadsheet in Excel (Microsoft). This spreadsheet carries out 4 operations: first, it scales the data from pixel measurements to nm using the appropriate scale factor (determined by the magnification used to observe bead movement); second, it subtracts the first point from all of the data, to set the origin at 0,0 (x,y coordinates); third, it rotates (in two dimensional space) the data around the origin so that the orientation of the cell is the same from trial to trial (here, the data was set so that the cells all face to the left); and fourth, the spreadsheet calculates the mean square displacement (MSD) data which are used to calculate diffusion coefficients and bead velocity. Individual traces were scored blind for classes of behavior. Statistical analysis of percentages of trials was carried out using chi-squared analysis or a Fisher's exact probability test.
# MSD values were calculated as previously described (see Qian et al, 1991; Biophysical Journal 60 p910). For these calculations, the squared displacement (a^2+b^2; where a=xn+t−xn, b=a=yn+t−yn for any two points separated by time t) of the bead was calculated between two points in the data set. The mean of the squared displacements was calculated for each time interval t=1 to m, where m is the time interval that equals 10% of the length of the data set. The mean displacement was plotted with respect to time giving a curve with a linear or quadratic shape, depending on the behavior of the bead. Diffusion rates and velocity were calculated by fitting the curve with the equation MSD=4Dt+v^2t^2, where D is the diffusion coefficient, v is the velocity and t is time. D and v were calculated for each bead independently and presented as averages or as individual values, as described in each case.
# Cell culture and transfection: ND-7 cells (rat neuroblastoma/DRG hybrid cells) were plated and transfected with pMyc-L1-CAM, pMyc-L1-CAM-YF, pMyc-L1-CAM-YH, or pMyc-L1-CAM-STOP expression constructs as described in Example 3, supra.
# In some instances, ND-7 cells transfected with pMyc-L1-CAM were treated with the cytoskeletal inhibitor cytochalasin D (2 μM; Sigma) or nocadazole (1 μM; Sigma). For these experiments treatment with DMSO (0.01%) vehicle alone served as the negative control.
# In some instances, ND-7 cells transfected with pMyc-L1-CAM were treated with neural growth factor (NGF) to stimulate phosphorylation of tyrosine 1229 (Y1229) of the L1-CAM cytoplasmic domain, and thereby inhibit ankyrin binding. […]
# [4] = target: T1, L1-CAM-ankyrin interactions (Homo sapiens, UniProt Q01484); experiment: Ankyrin recruitment assay: ankyrinB co-localization with L1-CAM at the membrane of transfected 293 cells; format: cell-based; details: 50 ng/mL EGF or 100 ng/mL NGF for 1 hour
# T1 construct: expressed in transfected cells; host or cells: human kidney 293 cells
# Experimental: Cell culture aid transfection: Human kidney 293 cells were cultured in DMEM medium (Gibco) supplemented with penicillin, streptomycin, L-glutamine, and 10% fetal bovine serum (Hyclone). The pMyc-L1-CAM or pL1-CAM-GFP expression constructs were transfected into cultured human kidney 293 cells using Lipofectamine plus (Invitrogen) according to manufacturer instructions. Cells were cultured for 24-48 hours and then used, or cultured continuously in the presence of 0.5 μg.mL G418 (Gibco) to select for stably transfected cells lines, to generate stable pooled lines of L1-CAM-expressing cells.
# In some instances, transfected 293 cells were treated with neural growth factor (NGF) or epidermal growth factor (EGF) to stimulate phosphorylation of tyrosine 1229 (Y1229) of the L1-CAM cytoplasmic domain, and thereby inhibit ankyrin binding. In these cases, cells were treated with 50 ng/mL EGF (Gibco) or 100 ng/mL NGF (Gibco) for 1 hour prior to the assay. […]
# Ankyrin and L1-CAM were detected by indirect immunofluorescence in double-labeled confocal sections through cell aggregates to permit the visualization of L1 and ankyrinB at the cell membrane. Expression of myc-L1-CAM was detected using a polyclonal anti-L1-CAM rabbit antibody. […] Ankyrin was detected using a monoclonal anti-ankyrinB mouse antibody (BD PharMingen). […]
# Quantification of ankyrin immunolocalization: Confocal micrographs were then used to quantify the degree of ankyrin localization to the cell membrane of myc-L1-CAM expressing cells. Images were analyzed using ImageJ (NIH) under Macintosh OSX. The method for quantifying ankyrinB localization to the membrane uses densitometry of a line scan perpendicular to and crossing a cell-cell junction. […]
# The densitometry intensity profile of the scanned line was used to determine a minimum ankyrinB signal for comparison to the value of the ankyrinB signal at the point where the maximum signal in the L1-CAM channel occurs. […] Minima were determined from the regions of the line overlapping the cytoplasm of either of the two cells. […]
# Cav2.2 channels = experiment: Calcium channel distribution by confocal indirect immunofluorescence in DRG neurons; format: cell-based, chicken; details: DRG neurons; application of the transmitter
# Experimental: Antibodies: Primary antibody: rabbit anti-pan α1 binds Ca channel (1:200 dilution, [1.5 μg/ml) [Alomone Labs; Jerusalem, Israel]. Secondary antibodies: (1:200 dilution, 10 μg/ml): tetramenthylrhodamine conjugated goat anti-rabbit IgG (H+L) [Molecular Probes; Eugene, OR]
# Dorsal root ganglia were dissected from 11 to 12 day old embryos, incubated for 30 min in saline containing nominal Ca 2^+ and Mg 2^+, and 0.05% collagenase (type A, Boehringer Mannheim). Ganglia were dissociated mechanically into single cells by trituration in culture medium containing Dulbecco's modified Eagle's medium supplemented with 10% horse serum, 5% chicken embryo extract, penicillin, streptomycin, glutamine, and nerve growth factor. Cells were plated at a density of ˜50,000 cells/collagen-coated 35 mm tissue culture dish and studied between 1 and 3 days in vitro.
# Immunohistochemistry: Cultures grown on poly-L-lysine cover glass slips were exposed to saline or 100 mM NE (norepinephrine), fixed and permeabilized in methanol at −20° C. for 15-minutes or 20 second (for residual experiment) followed by 3×5-min washes in PHEM Buffer [60 mM PIPES, 25 mM HEPES, 10 mM EGTA, 2 mM MgCl2, pH 6.9]. Cells were alternatively fixed with 4% paraformaldehyde in PHEM buffer, pH 6.9 for 20-min, washed 3×3-min with PHEM buffer and permeabilization with 0.1% Triton X-100/PHEM buffer for 3-min. Blocking was performed using 5% BSA in PHEM Buffer for 1-h at 4 C. Following overnight incubation with primary antibody in 1% BSA and 1% normal goat sera in PHEM Buffer at 4 C. After washes with PHEM Buffer, cover slips were incubated with fluorophore-conjugated secondary antibodies in 1% BSA PHEM Buffer for 1.5 hours at room temperature in the dark. […]
# Images of fixed cells were obtained with a pinhole setting of 0.95 using a UV 100× 1.4NA oil Leica objective lens and an optical zoom between 1.4 and 2× at slow acquisition speed with 4× frame averaging accumulation. The number of sections was calculated by the Leica TCS software based on acquisition of sections at 240 nm intervals in the Z-plane. […]
# T1 sequence (Q01484 whole entry): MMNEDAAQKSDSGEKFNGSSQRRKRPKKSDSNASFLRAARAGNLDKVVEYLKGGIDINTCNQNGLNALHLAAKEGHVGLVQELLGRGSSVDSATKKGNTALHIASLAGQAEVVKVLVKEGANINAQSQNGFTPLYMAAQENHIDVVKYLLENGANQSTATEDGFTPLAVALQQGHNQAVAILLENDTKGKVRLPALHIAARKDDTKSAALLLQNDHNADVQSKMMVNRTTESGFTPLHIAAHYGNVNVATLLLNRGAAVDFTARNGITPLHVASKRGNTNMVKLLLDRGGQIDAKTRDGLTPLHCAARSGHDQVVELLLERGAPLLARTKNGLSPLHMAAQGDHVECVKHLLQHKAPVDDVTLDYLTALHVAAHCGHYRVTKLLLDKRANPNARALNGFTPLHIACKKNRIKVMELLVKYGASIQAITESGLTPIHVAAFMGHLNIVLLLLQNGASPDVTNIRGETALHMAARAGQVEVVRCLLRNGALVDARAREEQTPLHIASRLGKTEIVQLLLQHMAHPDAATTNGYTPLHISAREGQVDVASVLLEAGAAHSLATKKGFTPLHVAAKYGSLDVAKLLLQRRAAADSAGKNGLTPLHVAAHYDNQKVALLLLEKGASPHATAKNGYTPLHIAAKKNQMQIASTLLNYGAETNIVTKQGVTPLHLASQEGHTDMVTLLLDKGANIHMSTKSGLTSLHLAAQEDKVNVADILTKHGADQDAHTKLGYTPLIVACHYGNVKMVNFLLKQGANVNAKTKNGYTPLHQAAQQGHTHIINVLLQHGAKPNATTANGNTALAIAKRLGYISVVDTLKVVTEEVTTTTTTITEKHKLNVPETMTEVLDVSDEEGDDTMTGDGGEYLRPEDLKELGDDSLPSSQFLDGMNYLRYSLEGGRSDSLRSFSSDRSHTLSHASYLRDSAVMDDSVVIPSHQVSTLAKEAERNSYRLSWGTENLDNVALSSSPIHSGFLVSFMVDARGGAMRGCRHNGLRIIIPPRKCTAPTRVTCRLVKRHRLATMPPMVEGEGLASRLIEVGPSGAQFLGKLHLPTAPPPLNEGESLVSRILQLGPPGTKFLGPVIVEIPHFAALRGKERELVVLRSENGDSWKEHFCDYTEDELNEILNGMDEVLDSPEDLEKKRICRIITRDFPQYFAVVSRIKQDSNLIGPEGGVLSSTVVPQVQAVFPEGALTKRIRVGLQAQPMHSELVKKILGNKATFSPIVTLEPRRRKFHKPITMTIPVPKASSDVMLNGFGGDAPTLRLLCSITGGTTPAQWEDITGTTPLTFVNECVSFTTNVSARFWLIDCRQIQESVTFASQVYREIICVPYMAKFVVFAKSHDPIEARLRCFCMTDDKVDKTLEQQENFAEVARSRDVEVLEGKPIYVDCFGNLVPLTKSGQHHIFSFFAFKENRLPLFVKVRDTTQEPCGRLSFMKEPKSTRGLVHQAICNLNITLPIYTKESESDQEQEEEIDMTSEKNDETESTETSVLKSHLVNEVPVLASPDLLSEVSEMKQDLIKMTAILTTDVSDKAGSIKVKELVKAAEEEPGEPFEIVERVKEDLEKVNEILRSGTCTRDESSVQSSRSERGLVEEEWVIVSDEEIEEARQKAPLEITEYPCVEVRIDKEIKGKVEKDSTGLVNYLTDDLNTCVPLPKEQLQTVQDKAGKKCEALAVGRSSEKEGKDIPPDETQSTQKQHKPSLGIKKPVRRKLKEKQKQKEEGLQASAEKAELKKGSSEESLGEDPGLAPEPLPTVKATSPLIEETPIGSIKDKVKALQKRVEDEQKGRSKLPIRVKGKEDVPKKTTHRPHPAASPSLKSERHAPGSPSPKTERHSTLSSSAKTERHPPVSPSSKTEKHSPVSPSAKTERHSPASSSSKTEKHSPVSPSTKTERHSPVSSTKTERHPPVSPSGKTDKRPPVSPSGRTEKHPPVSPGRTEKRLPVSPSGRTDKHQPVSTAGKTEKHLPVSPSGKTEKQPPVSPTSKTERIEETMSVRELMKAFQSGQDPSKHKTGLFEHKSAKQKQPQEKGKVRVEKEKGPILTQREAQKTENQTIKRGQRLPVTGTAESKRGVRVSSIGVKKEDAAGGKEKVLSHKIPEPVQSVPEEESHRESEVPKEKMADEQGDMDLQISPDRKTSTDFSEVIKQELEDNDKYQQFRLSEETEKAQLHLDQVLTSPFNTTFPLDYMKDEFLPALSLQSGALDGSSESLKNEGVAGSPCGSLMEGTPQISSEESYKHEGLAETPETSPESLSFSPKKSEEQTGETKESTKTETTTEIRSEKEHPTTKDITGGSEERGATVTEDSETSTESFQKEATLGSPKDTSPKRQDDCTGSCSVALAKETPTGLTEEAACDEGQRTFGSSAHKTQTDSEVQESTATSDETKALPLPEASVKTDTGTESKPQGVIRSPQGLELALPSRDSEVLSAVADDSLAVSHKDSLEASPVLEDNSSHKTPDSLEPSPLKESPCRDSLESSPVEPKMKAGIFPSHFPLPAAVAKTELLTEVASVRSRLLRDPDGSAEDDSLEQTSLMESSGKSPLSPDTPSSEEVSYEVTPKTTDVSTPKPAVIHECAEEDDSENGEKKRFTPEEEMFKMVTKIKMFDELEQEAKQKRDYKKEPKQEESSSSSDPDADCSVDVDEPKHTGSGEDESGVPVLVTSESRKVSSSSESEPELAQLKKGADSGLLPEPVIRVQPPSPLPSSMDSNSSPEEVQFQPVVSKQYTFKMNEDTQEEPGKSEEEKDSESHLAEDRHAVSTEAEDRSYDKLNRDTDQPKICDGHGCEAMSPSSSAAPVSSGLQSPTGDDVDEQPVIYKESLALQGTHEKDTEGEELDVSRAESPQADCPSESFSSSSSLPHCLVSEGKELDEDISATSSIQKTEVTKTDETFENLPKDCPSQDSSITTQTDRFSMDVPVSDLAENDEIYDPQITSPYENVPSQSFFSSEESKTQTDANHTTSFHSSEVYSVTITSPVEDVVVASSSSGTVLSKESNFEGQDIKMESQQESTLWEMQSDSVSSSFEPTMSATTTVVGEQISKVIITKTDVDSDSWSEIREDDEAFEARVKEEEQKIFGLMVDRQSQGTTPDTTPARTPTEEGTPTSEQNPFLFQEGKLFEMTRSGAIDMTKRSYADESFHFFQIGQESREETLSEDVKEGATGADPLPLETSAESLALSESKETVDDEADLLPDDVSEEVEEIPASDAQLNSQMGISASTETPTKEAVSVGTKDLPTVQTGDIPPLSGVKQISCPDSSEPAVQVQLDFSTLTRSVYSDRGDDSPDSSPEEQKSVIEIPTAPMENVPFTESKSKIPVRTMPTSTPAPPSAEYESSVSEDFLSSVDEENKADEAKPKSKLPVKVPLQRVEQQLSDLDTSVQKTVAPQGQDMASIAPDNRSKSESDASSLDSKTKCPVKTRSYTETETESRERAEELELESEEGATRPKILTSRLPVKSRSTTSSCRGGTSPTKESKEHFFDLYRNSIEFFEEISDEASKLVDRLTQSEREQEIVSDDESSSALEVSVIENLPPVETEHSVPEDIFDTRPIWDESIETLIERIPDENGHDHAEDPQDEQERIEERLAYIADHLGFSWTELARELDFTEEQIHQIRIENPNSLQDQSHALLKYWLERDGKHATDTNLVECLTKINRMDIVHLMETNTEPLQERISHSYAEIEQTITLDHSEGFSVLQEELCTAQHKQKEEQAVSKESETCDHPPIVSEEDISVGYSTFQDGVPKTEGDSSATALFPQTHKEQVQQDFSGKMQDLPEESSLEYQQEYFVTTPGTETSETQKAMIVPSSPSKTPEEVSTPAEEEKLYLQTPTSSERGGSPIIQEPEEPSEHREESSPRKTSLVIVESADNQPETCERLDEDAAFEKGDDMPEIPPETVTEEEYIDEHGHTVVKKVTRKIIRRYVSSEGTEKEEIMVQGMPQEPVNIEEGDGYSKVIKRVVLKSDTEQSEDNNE
Compound,% of trials diffusing [3],% of trials retrograde [3],% of trials stationary [3],other results
"NCC(CC(=O)O)c1ccc(Cl)cc1 (racemic) [Baclofen, 4-Amino-3-[4-chlorophenyl] butanoic acid]",,,,DRG neurons secreting low levels of Substance P [1]: 75%
C=C1[C@@H](C)[C@H]2[C@H](Cc3ccccc3)NC(=O)[C@]23[C@H](OC(C)=O)/C=C/[C@@](C)(O)C(=O)[C@@H](C)C/C=C/[C@H]3[C@@H]1O [cytochalasin D],83.3%,0%,16.7%,bead rigidity on the cell surface (resistance to lateral displacement) [2]: entirely abolished
COC(=O)Nc1nc2cc(C(=O)c3cccs3)ccc2[nH]1 [nocadazole],25%,43.75%,31.25%,
EGF: epidermal growth factor (Gibco),,,,ankyrin B colocalization with L1-CAM at the cell membrane [4]: significant reduction; also recorded: inhibited ankyrin membrane localization
"NC[C@H](O)c1ccc(O)c(O)c1 (racemic) [norepinephrine, Norepinephrine]",,,,punctate distribution of Cav2.2 channels in the membrane (Cav2.2 channels): rapidly (within 2s) reduced
